Results as given in PubChem BioAssay (NCI).
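Cells were grown in 96-well plates and exposed to each compound for 48 hours at five concentrations; endpoints were interpolated linearly between bracketing concentrations, or set to the highest concentration if not reached. The concentration for full growth arrest is given as TGI.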

How the values were obtained:
Assay in all cases: growth of human tumour cells (NCI), 48 h
HOP-62 NSCLC = test system: HOP-62 NSCLC
HCT-15 colon = test system: HCT-15 colon
SK-MEL-5 melanoma = test system: SK-MEL-5 melanoma
SNB-19 CNS = test system: SNB-19 CNS
PC-3 prostate = test system: PC-3 prostate
SF-268 CNS = test system: SF-268 CNS
SK-MEL-28 melanoma = test system: SK-MEL-28 melanoma
UO-31 renal = test system: UO-31 renal
OVCAR-8 ovarian = test system: OVCAR-8 ovarian
MDA-N = test system: MDA-N
MDA-MB-231 breast = test system: MDA-MB-231 breast
IGROV1 ovarian = test system: IGROV1 ovarian
HL-60(TB) leukemia = test system: HL-60(TB) leukemia
OVCAR-3 ovarian = test system: OVCAR-3 ovarian
SK-OV-3 ovarian = test system: SK-OV-3 ovarian
K-562 leukemia = test system: K-562 leukemia
SNB-75 CNS = test system: SNB-75 CNS
LOX IMVI melanoma = test system: LOX IMVI melanoma
MDA-MB-435 = test system: MDA-MB-435
SW-620 colon = test system: SW-620 colon
HT29 colon = test system: HT29 colon
EKVX NSCLC = test system: EKVX NSCLC
NCI/ADR-RES ovarian = test system: NCI/ADR-RES ovarian
HCC-2998 colon = test system: HCC-2998 colon
HOP-92 NSCLC = test system: HOP-92 NSCLC
KM12 colon = test system: KM12 colon
NCI-H460 lung = test system: NCI-H460 lung
SN12C renal = test system: SN12C renal
A549 NSCLC = test system: A549 NSCLC
T-47D breast = test system: T-47D breast
DU-145 prostate = test system: DU-145 prostate
MOLT-4 leukemia = test system: MOLT-4 leukemia
NCI-H23 lung = test system: NCI-H23 lung
MCF7 breast = test system: MCF7 breast
BT-549 breast = test system: BT-549 breast
UACC-62 melanoma = test system: UACC-62 melanoma
NCI-H522 lung = test system: NCI-H522 lung
TK-10 renal = test system: TK-10 renal
OVCAR-5 ovarian = test system: OVCAR-5 ovarian
M14 melanoma = test system: M14 melanoma
COLO 205 colon = test system: COLO 205 colon
OVCAR-4 ovarian = test system: OVCAR-4 ovarian
CCRF-CEM leukemia = test system: CCRF-CEM leukemia
786-0 renal = test system: 786-0 renal
UACC-257 melanoma = test system: UACC-257 melanoma
HCT-116 colon = test system: HCT-116 colon
U251 CNS = test system: U251 CNS
SF-539 CNS = test system: SF-539 CNS
SF-295 CNS = test system: SF-295 CNS
SK-MEL-2 melanoma = test system: SK-MEL-2 melanoma
A498 renal = test system: A498 renal
ACHN renal = test system: ACHN renal
RXF 393 renal = test system: RXF 393 renal
SR leukemia = test system: SR leukemia
MALME-3M melanoma = test system: MALME-3M melanoma
CAKI-1 renal = test system: CAKI-1 renal
NCI-H226 lung = test system: NCI-H226 lung

SMILES: OCC1OC(n2nc(-c3ccccc3)nc2-c2cnccn2)C(O)C1O (stereo not drawn)
- TGI (HOP-62 NSCLC): > 100 µM
- TGI (HCT-15 colon): > 100 µM
- TGI (SK-MEL-5 melanoma): > 100 µM
- TGI (SNB-19 CNS): > 100 µM
- TGI (PC-3 prostate): > 100 µM
- TGI (SF-268 CNS): > 100 µM
- TGI (SK-MEL-28 melanoma): > 100 µM
- TGI (UO-31 renal): > 100 µM
- TGI (OVCAR-8 ovarian): > 100 µM
- TGI (MDA-N): > 100 µM
- TGI (MDA-MB-231 breast): > 100 µM
- TGI (IGROV1 ovarian): > 100 µM
- TGI (HL-60(TB) leukemia): > 100 µM
- TGI (OVCAR-3 ovarian): > 100 µM
- TGI (SK-OV-3 ovarian): > 100 µM
- TGI (K-562 leukemia): > 100 µM
- TGI (SNB-75 CNS): > 100 µM
- TGI (LOX IMVI melanoma): > 100 µM
- TGI (MDA-MB-435): > 100 µM
- TGI (SW-620 colon): > 100 µM
- TGI (HT29 colon): > 100 µM
- TGI (EKVX NSCLC): > 100 µM
- TGI (NCI/ADR-RES ovarian): > 100 µM
- TGI (HCC-2998 colon): > 100 µM
- TGI (HOP-92 NSCLC): > 100 µM
- TGI (KM12 colon): > 100 µM
- TGI (NCI-H460 lung): > 100 µM
- TGI (SN12C renal): > 100 µM
- TGI (A549 NSCLC): > 100 µM
- TGI (T-47D breast): > 100 µM
- TGI (DU-145 prostate): > 100 µM
- TGI (MOLT-4 leukemia): > 100 µM
- TGI (NCI-H23 lung): > 100 µM
- TGI (MCF7 breast): > 100 µM
- TGI (BT-549 breast): > 100 µM
- TGI (UACC-62 melanoma): > 100 µM
- TGI (NCI-H522 lung): > 100 µM
- TGI (TK-10 renal): > 100 µM
- TGI (OVCAR-5 ovarian): > 100 µM
- TGI (M14 melanoma): > 100 µM
- TGI (COLO 205 colon): > 100 µM
- TGI (OVCAR-4 ovarian): > 100 µM
- TGI (CCRF-CEM leukemia): > 100 µM
- TGI (786-0 renal): > 100 µM
- TGI (UACC-257 melanoma): > 100 µM
- TGI (HCT-116 colon): > 100 µM
- TGI (U251 CNS): > 100 µM
- TGI (SF-539 CNS): > 100 µM
- TGI (SF-295 CNS): > 100 µM

SMILES: COc1ccc(N2C(=O)/C(=C\c3cccc(Oc4ccccc4)c3)S(=O)(=O)C2c2ccccc2)cc1 (stereo not drawn)
- TGI (SK-MEL-2 melanoma): > 100 µM
- TGI (A498 renal): > 100 µM
- TGI (HOP-62 NSCLC): > 100 µM
- TGI (HCT-15 colon): > 100 µM
- TGI (SK-MEL-5 melanoma): 98.7 µM
- TGI (SNB-19 CNS): > 100 µM
- TGI (PC-3 prostate): > 100 µM
- TGI (SK-MEL-28 melanoma): > 100 µM
- TGI (UO-31 renal): > 100 µM
- TGI (MDA-N): 87.6 µM
- TGI (MDA-MB-231 breast): > 100 µM
- TGI (HL-60(TB) leukemia): 58.9 µM
- TGI (OVCAR-3 ovarian): > 100 µM
- TGI (ACHN renal): > 100 µM
- TGI (RXF 393 renal): > 100 µM
- TGI (K-562 leukemia): > 100 µM
- TGI (LOX IMVI melanoma): > 100 µM
- TGI (MDA-MB-435): > 100 µM
- TGI (SW-620 colon): > 100 µM
- TGI (EKVX NSCLC): 88 µM
- TGI (NCI/ADR-RES ovarian): 46.2 µM
- TGI (HCC-2998 colon): > 100 µM
- TGI (HOP-92 NSCLC): > 100 µM
- TGI (SR leukemia): 59.3 µM
- TGI (KM12 colon): > 100 µM
- TGI (NCI-H460 lung): > 100 µM
- TGI (SN12C renal): > 100 µM
- TGI (A549 NSCLC): > 100 µM
- TGI (T-47D breast): > 100 µM
- TGI (DU-145 prostate): > 100 µM
- TGI (MOLT-4 leukemia): 22.5 µM
- TGI (NCI-H23 lung): > 100 µM
- TGI (MCF7 breast): > 100 µM
- TGI (BT-549 breast): 91.7 µM
- TGI (UACC-62 melanoma): > 100 µM
- TGI (NCI-H522 lung): 60.8 µM
- TGI (TK-10 renal): > 100 µM
- TGI (OVCAR-5 ovarian): > 100 µM
- TGI (MALME-3M melanoma): > 100 µM
- TGI (M14 melanoma): > 100 µM
- TGI (COLO 205 colon): > 100 µM
- TGI (OVCAR-4 ovarian): > 100 µM
- TGI (CCRF-CEM leukemia): > 100 µM
- TGI (786-0 renal): 42.5 µM
- TGI (CAKI-1 renal): > 100 µM
- TGI (UACC-257 melanoma): > 100 µM
- TGI (NCI-H226 lung): > 100 µM
- TGI (HCT-116 colon): > 100 µM
- TGI (U251 CNS): > 100 µM
